Test results: ChEMBL document CHEMBL5463725, “Data for DCP probe BAY-277” (2023)
Active and inactive are the calls of the source. No cut-off for these calls is given here.

Columns and labels:
[1] = biological target: cGMP-specific 3',5'-cyclic phosphodiesterase (Homo sapiens) (UniProt O76074); experiment: Inhibition of Phosphodiesterase PDE5A at 10.0 µM in the Eurofins Panlabs Safety Screen; settings: Compound concentration 10.0 uM
[2] = biological target: Glutamate receptor 2 (Homo sapiens) (UniProt P42262); experiment: Inhibition of Glutamate, AMPA at 10.0 µM in the Eurofins Panlabs Safety Screen; settings: Rattus norvegicus; Compound concentration 10.0 uM
D(3) dopamine receptor = D(3) dopamine receptor (Homo sapiens, UniProt P35462); settings: Compound concentration 10.0 uM
[3] = biological target: B2 bradykinin receptor (Homo sapiens) (UniProt P30411); experiment: Inhibition of Bradykinin B2 at 10.0 µM in the Eurofins Panlabs Safety Screen; settings: Compound concentration 10.0 uM
[4] = biological target: Dual specificity protein kinase CLK1 (Homo sapiens) (UniProt P49759); experiment: Inhibition of CLK1(h) at 10.0 µM in the Eurofins Kinase panel; settings: Compound concentration 10.0 uM
[5] = biological target: Tyrosine-protein kinase Lck (Homo sapiens) (UniProt P06239); experiment: Inhibition of Lck(h) at 10.0 µM in the Eurofins Kinase panel; settings: Compound concentration 10.0 uM
[6] = biological target: Alpha-1A adrenergic receptor (Rattus norvegicus) (UniProt P43140); experiment: Inhibition of Adrenergic alpha1A at 10.0 µM in the Eurofins Panlabs Safety Screen; settings: Compound concentration 10.0 uM
[7] = biological target: Muscarinic acetylcholine receptor M3 (Homo sapiens, UniProt P20309); experiment: GPCRScan assay: inhibition of M3; set-up: radioligand conc. used [nm] 0.3 – 1.0, parental cells stable CHO
[8] = biological target: Methionine aminopeptidase 2 (Homo sapiens, UniProt P50579); experiment: Degradation in HUVEC cells (WB) (Western Blot (WB)); format: functional, cell-based
[9] = biological target: Histamine H4 receptor (Homo sapiens) (UniProt Q9H3N8); settings: Compound concentration 10.0 uM
[10] = biological target: Glucocorticoid receptor (Homo sapiens) (UniProt P04150); experiment: Inhibition of Glucocorticoid at 10.0 µM in the Eurofins Panlabs Safety Screen; settings: Compound concentration 10.0 uM
[11] = biological target: TGF-beta receptor type-2 (Homo sapiens) (UniProt P37173); experiment: Inhibition of TGFBR2(h) at 10.0 µM in the Eurofins Kinase panel; settings: Compound concentration 10.0 uM
[12] = biological target: Vasopressin V1a receptor (Homo sapiens) (UniProt P37288); experiment: Inhibition of Vasopressin V1A at 10.0 µM in the Eurofins Panlabs Safety Screen; settings: Compound concentration 10.0 uM
[13] = biological target: Prostaglandin G/H synthase 2 (Homo sapiens) (UniProt P35354); experiment: Inhibition of Cyclooxygenase COX-2 at 10.0 µM in the Eurofins Panlabs Safety Screen; settings: Compound concentration 10.0 uM
[14] = biological target: 5-hydroxytryptamine receptor 3A (Homo sapiens) (UniProt P46098); settings: Compound concentration 10.0 uM
[15] = biological target: Tyrosine-protein kinase SYK (Homo sapiens) (UniProt P43405); experiment: Inhibition of Syk(h) at 10.0 µM in the Eurofins Kinase panel; settings: Compound concentration 10.0 uM
[16] = biological target: Alpha-1B adrenergic receptor (Homo sapiens) (UniProt P35368); settings: Compound concentration 10.0 uM
[17] = biological target: 5-hydroxytryptamine receptor 2B (Homo sapiens) (UniProt P41595); experiment: Inhibition of Serotonin (5-Hydroxytryptamine) 5-HT2B at 10.0 µM in the Eurofins Panlabs Safety Screen; settings: Compound concentration 10.0 uM
[18] = biological target: 3',5'-cyclic-AMP phosphodiesterase 4D (Homo sapiens) (UniProt Q08499); experiment: Inhibition of Phosphodiesterase PDE4D2 at 10.0 µM in the Eurofins Panlabs Safety Screen; settings: Compound concentration 10.0 uM
[19] = biological target: 5-hydroxytryptamine receptor 1B (Homo sapiens) (UniProt P28222); settings: Compound concentration 10.0 uM
[20] = biological target: T1, Muscarinic acetylcholine receptor M1 (Homo sapiens, UniProt P11229); experiment: GPCRScan assay: inhibition of M1; set-up: radioligand conc. used [nm] 0.3 – 1.2, parental cells stable CHO
T1 sequence (P11229 whole entry): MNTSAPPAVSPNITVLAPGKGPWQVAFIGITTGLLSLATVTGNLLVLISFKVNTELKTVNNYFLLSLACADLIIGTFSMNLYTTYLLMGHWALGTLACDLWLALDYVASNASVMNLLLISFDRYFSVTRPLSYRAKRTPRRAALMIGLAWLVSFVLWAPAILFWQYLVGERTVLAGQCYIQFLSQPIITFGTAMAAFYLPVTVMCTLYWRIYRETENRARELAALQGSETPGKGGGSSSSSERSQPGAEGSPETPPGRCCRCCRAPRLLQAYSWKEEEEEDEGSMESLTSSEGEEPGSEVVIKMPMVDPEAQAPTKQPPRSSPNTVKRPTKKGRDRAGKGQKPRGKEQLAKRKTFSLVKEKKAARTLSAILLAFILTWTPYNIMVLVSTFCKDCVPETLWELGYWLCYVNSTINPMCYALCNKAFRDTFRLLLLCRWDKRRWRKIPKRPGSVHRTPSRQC

[21] = biological target: Androgen receptor (Homo sapiens) (UniProt P10275); experiment: Inhibition of Androgen (Testosterone) at 10.0 µM in the Eurofins Panlabs Safety Screen; settings: Compound concentration 10.0 uM
[22] = biological target: T2, Alpha-2B adrenergic receptor (Homo sapiens) (UniProt P18089); settings: Compound concentration 10.0 uM
T2 sequence (whole entry): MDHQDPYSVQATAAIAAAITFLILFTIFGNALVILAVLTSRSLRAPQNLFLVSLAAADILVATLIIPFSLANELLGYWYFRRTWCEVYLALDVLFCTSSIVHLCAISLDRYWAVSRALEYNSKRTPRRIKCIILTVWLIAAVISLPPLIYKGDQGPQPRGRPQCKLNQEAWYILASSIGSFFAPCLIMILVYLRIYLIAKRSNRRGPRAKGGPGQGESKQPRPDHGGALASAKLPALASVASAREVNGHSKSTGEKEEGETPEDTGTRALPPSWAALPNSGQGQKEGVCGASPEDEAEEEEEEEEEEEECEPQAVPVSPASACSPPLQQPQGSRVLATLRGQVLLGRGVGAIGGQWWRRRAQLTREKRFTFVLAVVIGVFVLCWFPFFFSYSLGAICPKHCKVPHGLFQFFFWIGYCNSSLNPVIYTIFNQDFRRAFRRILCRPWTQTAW

[23] = biological target: Histamine H1 receptor (Homo sapiens) (UniProt P35367); settings: Compound concentration 10.0 uM
[24] = biological target: Sigma non-opioid intracellular receptor 1 (Homo sapiens) (UniProt Q99720); settings: Compound concentration 10.0 uM
[25] = biological target: Endothelin-1 receptor (Homo sapiens) (UniProt P25101); experiment: Inhibition of Endothelin ETA at 10.0 µM in the Eurofins Panlabs Safety Screen; settings: Compound concentration 10.0 uM
[26] = biological target: 5-hydroxytryptamine receptor 1D (Homo sapiens) (UniProt P28221); settings: Compound concentration 10.0 uM
[27] = biological target: GABA B receptor (Rattus norvegicus) (UniProt Q9Z0U4+O88871); experiment: Inhibition of GABAB, Non-Selective at 10.0 µM in the Eurofins Panlabs Safety Screen; format: protein-complex assay; settings: Compound concentration 10.0 uM
[28] = biological target: Prostaglandin G/H synthase 1 (Homo sapiens) (UniProt P23219); experiment: Inhibition of Cyclooxygenase COX-1 at 10.0 µM in the Eurofins Panlabs Safety Screen; settings: Compound concentration 10.0 uM
Sequence of Prostaglandin G/H synthase 1 (Homo sapiens) (P23219 whole entry): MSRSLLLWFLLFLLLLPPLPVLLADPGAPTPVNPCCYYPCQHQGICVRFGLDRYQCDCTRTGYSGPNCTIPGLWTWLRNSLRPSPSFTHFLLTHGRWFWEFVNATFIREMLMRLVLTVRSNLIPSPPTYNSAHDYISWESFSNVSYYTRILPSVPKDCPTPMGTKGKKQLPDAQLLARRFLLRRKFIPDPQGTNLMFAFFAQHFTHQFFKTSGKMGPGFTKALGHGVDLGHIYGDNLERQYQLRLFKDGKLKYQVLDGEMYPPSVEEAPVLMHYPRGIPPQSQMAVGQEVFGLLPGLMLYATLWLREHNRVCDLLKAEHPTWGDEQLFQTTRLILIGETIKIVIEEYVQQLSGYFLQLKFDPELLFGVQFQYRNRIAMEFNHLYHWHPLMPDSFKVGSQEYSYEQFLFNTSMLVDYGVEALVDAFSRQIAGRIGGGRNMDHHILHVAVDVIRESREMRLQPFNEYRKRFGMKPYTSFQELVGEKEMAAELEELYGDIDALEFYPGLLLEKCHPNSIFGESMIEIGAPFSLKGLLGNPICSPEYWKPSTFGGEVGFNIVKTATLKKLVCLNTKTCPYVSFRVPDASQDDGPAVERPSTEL

Sequence of Alpha-1B adrenergic receptor (Homo sapiens) (P35368 whole entry): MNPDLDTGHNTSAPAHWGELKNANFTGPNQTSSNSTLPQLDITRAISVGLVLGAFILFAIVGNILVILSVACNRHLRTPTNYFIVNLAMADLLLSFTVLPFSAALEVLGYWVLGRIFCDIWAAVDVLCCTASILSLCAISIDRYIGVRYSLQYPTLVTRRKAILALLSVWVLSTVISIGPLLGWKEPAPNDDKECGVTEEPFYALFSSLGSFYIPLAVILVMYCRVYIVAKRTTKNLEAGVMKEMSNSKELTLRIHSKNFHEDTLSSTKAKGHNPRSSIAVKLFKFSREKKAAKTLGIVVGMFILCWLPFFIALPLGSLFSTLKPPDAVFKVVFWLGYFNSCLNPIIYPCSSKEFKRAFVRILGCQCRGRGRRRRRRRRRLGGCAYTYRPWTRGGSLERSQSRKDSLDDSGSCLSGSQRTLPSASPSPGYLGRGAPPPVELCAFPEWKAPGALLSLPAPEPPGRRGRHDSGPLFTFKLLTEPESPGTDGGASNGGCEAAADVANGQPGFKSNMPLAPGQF
Sequence of 5-hydroxytryptamine receptor 1B (Homo sapiens) (P28222 whole entry): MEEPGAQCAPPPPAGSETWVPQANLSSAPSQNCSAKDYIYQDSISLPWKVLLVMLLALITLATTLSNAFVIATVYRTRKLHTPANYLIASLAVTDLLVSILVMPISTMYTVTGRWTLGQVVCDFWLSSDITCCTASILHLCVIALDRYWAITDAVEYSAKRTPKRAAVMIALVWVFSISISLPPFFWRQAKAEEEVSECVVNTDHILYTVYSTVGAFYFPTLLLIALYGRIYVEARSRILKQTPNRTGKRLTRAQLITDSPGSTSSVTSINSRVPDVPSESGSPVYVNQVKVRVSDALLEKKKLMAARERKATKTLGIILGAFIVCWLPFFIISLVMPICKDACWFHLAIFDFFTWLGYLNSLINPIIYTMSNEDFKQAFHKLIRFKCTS
Sequence of Histamine H1 receptor (Homo sapiens) (P35367 whole entry): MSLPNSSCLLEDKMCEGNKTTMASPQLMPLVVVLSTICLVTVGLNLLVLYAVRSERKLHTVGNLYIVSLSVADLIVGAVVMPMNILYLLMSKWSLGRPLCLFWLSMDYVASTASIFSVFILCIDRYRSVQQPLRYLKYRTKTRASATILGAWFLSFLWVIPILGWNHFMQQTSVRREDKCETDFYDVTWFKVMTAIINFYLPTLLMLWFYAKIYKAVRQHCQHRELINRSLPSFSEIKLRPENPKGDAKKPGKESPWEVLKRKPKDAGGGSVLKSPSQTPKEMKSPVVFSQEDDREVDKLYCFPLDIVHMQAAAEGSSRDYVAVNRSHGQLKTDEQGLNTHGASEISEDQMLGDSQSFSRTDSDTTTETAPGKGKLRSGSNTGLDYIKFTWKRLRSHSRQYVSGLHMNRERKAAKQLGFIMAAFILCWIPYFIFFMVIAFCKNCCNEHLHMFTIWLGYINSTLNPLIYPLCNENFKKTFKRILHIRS
Sequence of D(3) dopamine receptor (P35462 whole entry): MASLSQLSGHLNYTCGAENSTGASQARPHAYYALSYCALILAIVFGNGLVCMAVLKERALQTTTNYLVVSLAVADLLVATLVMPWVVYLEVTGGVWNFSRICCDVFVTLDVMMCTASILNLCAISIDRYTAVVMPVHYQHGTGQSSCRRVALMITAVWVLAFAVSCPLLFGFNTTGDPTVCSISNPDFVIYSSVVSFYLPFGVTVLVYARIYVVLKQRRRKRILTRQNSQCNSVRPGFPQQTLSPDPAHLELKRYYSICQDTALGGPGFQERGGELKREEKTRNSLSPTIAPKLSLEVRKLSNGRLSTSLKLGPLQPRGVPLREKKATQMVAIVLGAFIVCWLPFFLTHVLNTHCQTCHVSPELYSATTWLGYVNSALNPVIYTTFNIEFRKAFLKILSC
Sequence of Sigma non-opioid intracellular receptor 1 (Homo sapiens) (Q99720 whole entry): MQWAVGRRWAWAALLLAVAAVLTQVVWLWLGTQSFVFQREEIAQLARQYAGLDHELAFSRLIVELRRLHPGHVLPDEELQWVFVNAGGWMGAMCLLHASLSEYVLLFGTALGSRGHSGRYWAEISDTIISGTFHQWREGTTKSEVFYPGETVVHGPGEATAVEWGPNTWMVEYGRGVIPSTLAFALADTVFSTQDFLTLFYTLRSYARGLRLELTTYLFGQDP
Sequence of Histamine H4 receptor (Homo sapiens) (Q9H3N8 whole entry): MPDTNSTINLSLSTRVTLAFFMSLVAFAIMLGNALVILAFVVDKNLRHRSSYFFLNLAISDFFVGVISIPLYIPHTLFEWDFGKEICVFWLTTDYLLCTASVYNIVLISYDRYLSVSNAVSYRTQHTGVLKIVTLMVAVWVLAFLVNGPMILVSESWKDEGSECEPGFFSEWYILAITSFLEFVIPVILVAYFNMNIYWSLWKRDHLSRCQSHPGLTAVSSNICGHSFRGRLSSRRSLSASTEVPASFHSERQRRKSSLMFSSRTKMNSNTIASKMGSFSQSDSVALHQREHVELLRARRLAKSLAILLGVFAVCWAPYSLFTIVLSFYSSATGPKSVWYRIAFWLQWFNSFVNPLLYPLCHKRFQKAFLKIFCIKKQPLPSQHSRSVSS
Sequence of Muscarinic acetylcholine receptor M3 (P20309 whole entry): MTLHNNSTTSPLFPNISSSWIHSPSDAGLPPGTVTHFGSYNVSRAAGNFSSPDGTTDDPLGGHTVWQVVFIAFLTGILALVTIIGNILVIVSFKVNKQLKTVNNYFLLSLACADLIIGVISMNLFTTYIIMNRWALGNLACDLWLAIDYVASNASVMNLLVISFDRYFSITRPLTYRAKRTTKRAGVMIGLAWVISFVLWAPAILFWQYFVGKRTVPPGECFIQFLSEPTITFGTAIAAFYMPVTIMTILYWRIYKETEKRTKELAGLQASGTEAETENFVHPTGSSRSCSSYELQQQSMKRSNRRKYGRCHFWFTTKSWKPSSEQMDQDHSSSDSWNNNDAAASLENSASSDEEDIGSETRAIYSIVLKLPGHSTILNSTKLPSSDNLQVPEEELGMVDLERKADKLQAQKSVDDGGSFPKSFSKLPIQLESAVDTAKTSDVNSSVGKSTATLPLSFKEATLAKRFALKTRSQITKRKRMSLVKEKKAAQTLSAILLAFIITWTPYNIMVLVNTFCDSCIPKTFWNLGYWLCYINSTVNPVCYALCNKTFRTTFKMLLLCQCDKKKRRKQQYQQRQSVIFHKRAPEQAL
Sequence of 5-hydroxytryptamine receptor 1D (Homo sapiens) (P28221 whole entry): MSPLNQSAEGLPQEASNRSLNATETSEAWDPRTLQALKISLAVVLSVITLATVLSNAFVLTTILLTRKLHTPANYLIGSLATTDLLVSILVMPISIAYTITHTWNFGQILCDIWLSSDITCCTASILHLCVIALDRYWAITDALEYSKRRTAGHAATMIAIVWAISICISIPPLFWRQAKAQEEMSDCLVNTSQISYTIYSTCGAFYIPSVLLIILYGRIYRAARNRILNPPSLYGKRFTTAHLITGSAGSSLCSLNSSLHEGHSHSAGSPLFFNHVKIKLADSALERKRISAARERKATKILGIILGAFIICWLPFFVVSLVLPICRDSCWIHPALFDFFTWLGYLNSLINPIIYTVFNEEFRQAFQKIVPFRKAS
Sequence of 5-hydroxytryptamine receptor 3A (Homo sapiens) (P46098 whole entry): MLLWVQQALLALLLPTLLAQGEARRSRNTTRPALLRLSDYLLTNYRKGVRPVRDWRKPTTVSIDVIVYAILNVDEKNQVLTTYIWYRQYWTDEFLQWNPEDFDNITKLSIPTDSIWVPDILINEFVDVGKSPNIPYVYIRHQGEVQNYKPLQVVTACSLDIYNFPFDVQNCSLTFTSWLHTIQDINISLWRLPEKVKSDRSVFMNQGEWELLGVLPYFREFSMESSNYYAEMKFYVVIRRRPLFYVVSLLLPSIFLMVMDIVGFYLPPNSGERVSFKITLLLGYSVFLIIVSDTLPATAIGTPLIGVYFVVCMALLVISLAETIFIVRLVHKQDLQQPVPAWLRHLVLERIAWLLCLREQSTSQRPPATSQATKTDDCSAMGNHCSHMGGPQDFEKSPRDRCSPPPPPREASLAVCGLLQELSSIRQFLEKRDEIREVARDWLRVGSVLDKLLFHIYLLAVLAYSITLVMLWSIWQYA
Sequence of 5-hydroxytryptamine receptor 2B (Homo sapiens) (P41595 whole entry): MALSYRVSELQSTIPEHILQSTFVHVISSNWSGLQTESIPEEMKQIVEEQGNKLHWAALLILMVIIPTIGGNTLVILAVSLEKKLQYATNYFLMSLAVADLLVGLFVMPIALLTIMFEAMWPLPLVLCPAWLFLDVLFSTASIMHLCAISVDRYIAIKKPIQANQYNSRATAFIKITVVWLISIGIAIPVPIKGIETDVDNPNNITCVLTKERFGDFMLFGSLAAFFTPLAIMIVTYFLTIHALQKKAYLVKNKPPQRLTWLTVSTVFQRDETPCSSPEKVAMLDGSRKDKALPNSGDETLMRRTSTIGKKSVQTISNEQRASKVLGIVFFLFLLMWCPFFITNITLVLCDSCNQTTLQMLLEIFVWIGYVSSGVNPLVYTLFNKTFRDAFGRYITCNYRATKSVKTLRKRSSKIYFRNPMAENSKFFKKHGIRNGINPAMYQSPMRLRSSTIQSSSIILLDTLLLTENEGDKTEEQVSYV

O=C1CCC(N2Cc3cc(C4CCN(C(=O)CCCCCN5CCC(c6ccc(Oc7nn8cnnc8c8c7CCCC8)cc6)CC5)CC4)ccc3C2=O)C(=O)N1 (configuration not stated)
inhibition [1]: 25%
inhibition [2]: 0%
inhibition (D(3) dopamine receptor): 25.6%
inhibition [3]: 10%
inhibition [4]: 13.9%
inhibition [5]: 14.3%
inhibition [6]: 32%
Ki ([7]; read-out: Ki): 2.26 µM
Ki ([7]; read-out: pKi (converted)): 2.09 µM
DC50 [8]: 0.0002 µM (active)
inhibition [9]: -8.84%
inhibition [10]: 13%
inhibition [11]: 12.7%
inhibition [12]: -8%
inhibition [13]: -6%
inhibition [14]: 22.9%
inhibition [15]: 25%
inhibition [16]: 6.88%
inhibition [17]: 41%
inhibition [18]: 10%
inhibition [19]: 21.9%
Ki ([20]; read-out: Ki): 1.67 µM
Ki ([20]; read-out: pKi (converted)): 1.66 µM
inhibition [21]: -6%
inhibition [22]: 8.76%
inhibition [23]: 10.3%
inhibition [24]: 28.9%
inhibition [25]: -1%
inhibition [26]: 48.5%
inhibition [27]: 15%
inhibition [28]: 16%

O=C1NCCCC1N1Cc2cc(C3CCN(C(=O)CCCCCN4CCC(c5ccc(Oc6nn7cnnc7c7c6CCCC7)cc5)CC4)CC3)ccc2C1=O (configuration not stated)
inhibition [1]: 10%
inhibition [2]: 3%
inhibition (D(3) dopamine receptor): 68.3%
inhibition [3]: 13%
inhibition [4]: 16.7%
inhibition [5]: 11.9%
inhibition [6]: 21%
Ki ([7]; read-out: Ki): 1.89 µM
Ki ([7]; read-out: pKi (converted)): 1.86 µM
DC50 [8]: > 0.1 µM (not active)
inhibition [9]: -3.44%
inhibition [10]: 20%
inhibition [11]: 11.3%
inhibition [12]: -3%
inhibition [13]: -7%
inhibition [14]: 23.8%
inhibition [15]: 20.4%
inhibition [16]: 2.86%
inhibition [17]: 10%
inhibition [18]: 18%
inhibition [19]: 14.2%
Ki ([20]; read-out: Ki): 2.19 µM
Ki ([20]; read-out: pKi (converted)): 2.19 µM
inhibition [21]: -2%
inhibition [22]: 8.66%
inhibition [23]: 14.2%
inhibition [24]: 28.4%
inhibition [25]: 3%
inhibition [26]: 37.4%
inhibition [27]: 22%
inhibition [28]: 21%
